Data on three molecules can be found in US7022480B1, “Exons of the hSKCa3/KCNN3 gene” (priority 2001, dated 2006).

In one series the test system is SKCa3-1a currents. Put plainly: Co-expression with SKCa3-1a in mammalian cells, calcium-activated currents. To be noted: untagged or with a GFP tag. The class given is cell-based. From the text: When normally expressed in mammalian cells, native or green fluorescence protein (GFP) tagged SKCa3-1a produces robust apamin- and Leiurus toxin-sensitive calcium-activated currents (Shakkottai et al., J. Biol. Chem. 276 (46): 43145–43151, 2001.).
SKCa3-1a currents, sequence (Q9UGI6 81-731): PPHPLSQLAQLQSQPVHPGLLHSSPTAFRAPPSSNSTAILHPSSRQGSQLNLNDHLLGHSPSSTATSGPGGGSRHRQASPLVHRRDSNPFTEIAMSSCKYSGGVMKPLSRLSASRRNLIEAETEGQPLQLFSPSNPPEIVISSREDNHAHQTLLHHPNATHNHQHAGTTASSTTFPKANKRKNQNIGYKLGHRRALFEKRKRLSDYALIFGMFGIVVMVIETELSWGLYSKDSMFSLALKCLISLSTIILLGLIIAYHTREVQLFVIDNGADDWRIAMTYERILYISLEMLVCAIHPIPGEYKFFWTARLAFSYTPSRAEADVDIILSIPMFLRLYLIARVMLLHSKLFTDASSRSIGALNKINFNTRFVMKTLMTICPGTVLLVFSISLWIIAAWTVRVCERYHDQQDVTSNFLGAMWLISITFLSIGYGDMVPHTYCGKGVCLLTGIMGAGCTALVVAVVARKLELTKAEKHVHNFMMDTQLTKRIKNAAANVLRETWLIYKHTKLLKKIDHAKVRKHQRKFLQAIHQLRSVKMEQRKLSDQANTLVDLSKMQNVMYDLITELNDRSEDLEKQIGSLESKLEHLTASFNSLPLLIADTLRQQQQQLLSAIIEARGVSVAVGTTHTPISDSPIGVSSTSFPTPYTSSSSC

A further series deals with GFP-SKCa1 currents. Put plainly: Co-expression with GFP-SKCa1 in mammalian cells, calcium-activated currents. The conditions noted are these: expressed in mammalian cells. The class given is cell-based. From the text: GFP-SKCa1 produces robust calcium-activated currents when expressed in COS-7 cells (Shakkottai et al., J. Biol. Chem. 276 (46): 43145–43151, 2001.). When co-expressed with fluorescently labeled SKCa3-1b (Tomita et al, 2002 Mol. Psych. In press) or fluorescently labeled SKCa3-1c, dominant-negative suppression of SKCa3-1a is seen. Similarly, fluorescently labeled SKCa3-1b (Tomita et al, 2002 Mol. Psych. In press) and fluorescently labeled SKCa3-1c dominant-negatively suppress endogenous SKCa currents present in PC12 cells (Sun et al., J. Hum. Genet. 46, 463–470, 2001.).
GFP-SKCa1 currents, sequence (Q92952 2-543): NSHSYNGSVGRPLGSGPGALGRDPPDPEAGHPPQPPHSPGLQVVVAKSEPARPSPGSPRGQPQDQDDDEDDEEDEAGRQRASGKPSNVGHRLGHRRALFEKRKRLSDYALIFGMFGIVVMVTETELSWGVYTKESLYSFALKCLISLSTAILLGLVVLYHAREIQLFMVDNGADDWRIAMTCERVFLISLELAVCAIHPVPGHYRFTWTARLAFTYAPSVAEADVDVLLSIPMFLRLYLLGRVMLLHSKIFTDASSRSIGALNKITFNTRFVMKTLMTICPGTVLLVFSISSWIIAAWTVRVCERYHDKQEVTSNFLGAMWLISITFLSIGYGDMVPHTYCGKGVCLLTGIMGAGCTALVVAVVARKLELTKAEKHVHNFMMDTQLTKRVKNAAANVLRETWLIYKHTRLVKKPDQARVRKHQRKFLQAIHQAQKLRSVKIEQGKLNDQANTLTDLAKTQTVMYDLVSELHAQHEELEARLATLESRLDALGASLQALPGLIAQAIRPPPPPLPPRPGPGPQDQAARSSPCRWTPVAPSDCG

For the next series, the system named is SKCa and IKCa1 channel. To be noted: reported in the literature; cited from earlier work.
The target in series [1] is T1, SK2 channels in Jurkat T lymphocytes (Homo sapiens, UniProt Q9H2S1).
T1 construct: endogenous in cells; host or cells: Jurkat T lymphocytes
T1 sequence (Q9H2S1 whole entry): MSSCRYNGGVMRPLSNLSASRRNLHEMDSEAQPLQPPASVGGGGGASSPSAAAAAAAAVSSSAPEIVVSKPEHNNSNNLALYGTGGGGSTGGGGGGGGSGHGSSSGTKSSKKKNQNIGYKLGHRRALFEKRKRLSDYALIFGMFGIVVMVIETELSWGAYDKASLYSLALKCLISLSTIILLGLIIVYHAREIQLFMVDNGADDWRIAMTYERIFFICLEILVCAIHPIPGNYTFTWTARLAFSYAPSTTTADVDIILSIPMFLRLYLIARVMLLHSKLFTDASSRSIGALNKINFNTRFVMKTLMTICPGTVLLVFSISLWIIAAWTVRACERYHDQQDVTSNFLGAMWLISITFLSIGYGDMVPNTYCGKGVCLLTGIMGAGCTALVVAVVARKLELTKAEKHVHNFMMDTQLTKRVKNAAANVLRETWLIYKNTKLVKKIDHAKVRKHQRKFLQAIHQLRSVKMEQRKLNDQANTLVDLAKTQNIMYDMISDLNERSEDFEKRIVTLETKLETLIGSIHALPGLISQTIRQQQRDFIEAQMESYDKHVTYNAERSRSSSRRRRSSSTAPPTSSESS
Put plainly: Whole-cell patch clamp of native SK2 current in Jurkat T lymphocytes. The class given is cell-based. The conditions noted are these: transfected Jurkat T lymphocytes. On the procedure: (§1) PC12 and Jurkat T cells were studied in the whole cell configuration of the patch clamp technique with a holding potential of −80 mV. SK and Kv current amplitude were determined in untransfected cells or in cells transfected with SKCa3-1b-GFP, SKCa3-1b-IRES-GFP, or control constructs (GFP vector alone, GFP-Kv1.7). […] Brightly GFP-positive cells were identified under a fluorescence microscope to allow the analysis of cells expressing high levels of the channel constructs for electrophysiological studies. Control constructs were expressed at equivalently high levels as assessed by the intensity of the GFP signal.
(§2) To activate SK channels, the pipette solution contained (in mM): 145 K^+ aspartate, 2 MgCl2, 10 HEPES, 10 K2EGTA, and 8.5 CaCl2 (1 μM free Ca^2+), pH 7.2, 290–310 mOsm. […] The amplitude of the KV current was measured as the maximum current at 30 mV in 160 Na^+ aspartate. […]
(§3) Human Jurkat T lymphocyte cell line was chosen for these experiments because they express SK2 channels and no other SK channels, along with voltage-gated Kv1.3 channels that could serve as an internal control (Fanger et al, J. Biol. Chem. 2001; 276: 12249–12256; Grissmer et al, J. Gen. Physiol. 1992; 99: 63–84; Desai et al, J. Biol. Chem. 2000; 275: 39954–39963.). Using the electrophysiological protocol described above for PC12 cells, SK2 and Kv1.3 currents in Jurkat cells were measured. […]
(In patch-clamp work, channel activity is measured electrically.)

Series [2] deals with T2, Kv1.3 channels in Jurkat T lymphocytes (Homo sapiens, UniProt P22001).
T2 construct: endogenous in cells; host or cells: Jurkat T lymphocytes
T2 sequence (P22001 whole entry): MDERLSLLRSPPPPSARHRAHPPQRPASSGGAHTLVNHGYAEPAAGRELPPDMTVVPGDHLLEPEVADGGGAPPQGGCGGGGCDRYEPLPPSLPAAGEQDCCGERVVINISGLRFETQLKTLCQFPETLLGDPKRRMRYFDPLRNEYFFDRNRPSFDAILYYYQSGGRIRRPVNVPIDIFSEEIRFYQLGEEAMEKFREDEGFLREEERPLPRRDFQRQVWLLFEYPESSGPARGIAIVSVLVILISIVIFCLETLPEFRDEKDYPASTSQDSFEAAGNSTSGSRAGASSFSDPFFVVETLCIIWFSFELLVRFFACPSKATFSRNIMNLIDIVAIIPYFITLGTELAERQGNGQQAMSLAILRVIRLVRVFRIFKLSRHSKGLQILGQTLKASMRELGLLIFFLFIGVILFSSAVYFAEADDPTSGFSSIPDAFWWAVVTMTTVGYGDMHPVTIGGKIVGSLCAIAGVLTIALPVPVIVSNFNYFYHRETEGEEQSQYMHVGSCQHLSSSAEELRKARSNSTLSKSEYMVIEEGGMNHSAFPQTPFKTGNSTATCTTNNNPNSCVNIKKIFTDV
Put plainly: Whole-cell patch clamp of Kv1.3 current in Jurkat T lymphocytes (internal control). In kind it is cell-based. To be noted: transfected Jurkat T lymphocytes. On the procedure: as §1, §2, §3

On to “SKCa3-1c: isoform variant of the SK3 gene (SEQ ID NO: 4) using exon 1c, lacking N-terminus and S1 segment”, for which the “effect of co-expression on SKCa3-1a current” value with SKCa3-1a currents is on record as “comparable results”. The “effect on GFP-SKCa1 currents” value with GFP-SKCa1 currents is “negative dominantly suppress”.
With `CCn1c(=O)[nH]c2ccccc21` [1-ethyl-2-benzimidazolinone], the “effect on SKCa and IKCa1 channel opening” value in the series with SKCa and IKCa1 channel was “enhance SKCa and IKCa1 channel opening”.
Turning to “SKCa3-1b: isoform variant of the SK3 gene (SEQ ID NO: 2) using exon 1b, lacking N-terminus and S1 segment”, in series [1], the “effect of transfection on native SK2 current” value is “suppressed”. Also, the “effect of transfection on control Kv1.3 current” value in series [2] is given as “unaffected”. In addition, the “effect of co-expression on SKCa3-1a current” value with SKCa3-1a currents is given as “selective dramatic inhibition”. In addition, the “effect on GFP-SKCa1 currents” value with GFP-SKCa1 currents is listed as “negative dominantly suppress”.
